Test results published in PubChem BioAssay AID330 (DTP/NCI, 2004).
Several values for one entry are separate records, joined by “and”; a condition that tells them apart may be missing. Equal entries are not always repeated. Inconclusive results and toxic doses are left out.

System: P388 leukemia ip, CD2F1 mice, survival T/C
Experiment: NCI In Vivo Anticancer Drug Screen. Data for tumor model P388 Leukemia (intraperitoneal) in CD2F1 (CDF1) mice
Details: endpoint: median survival time, higher = longer survival
In short: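 Mice carrying the transplanted tumor received test compound or vehicle. Survival was recorded in each group, and the value is the treated-group measurement divided by that of the vehicle-treated control group.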

[1] = dose: 50.0 mg/kg/injection, schedule: Q01DX009 (ip), vehicle: saline with Tween-80
[2] = dose: 100.0 mg/kg/injection, schedule: Q01DX009 (ip), vehicle: saline with Tween-80
[3] = dose: 200.0 mg/kg/injection, schedule: Q01DX009 (ip), vehicle: saline with Tween-80
[4] = dose: 50.0 mg/kg/injection, schedule: Q01DX005 (ip), vehicle: saline with Tween-80
[5] = dose: 100.0 mg/kg/injection, schedule: Q01DX005 (ip), vehicle: saline with Tween-80
[6] = dose: 25.0 mg/kg/injection, schedule: Q01DX009 (ip), vehicle: distilled water + Tween-80
[7] = dose: 50.0 mg/kg/injection, schedule: Q01DX009 (ip), vehicle: distilled water + Tween-80
[8] = dose: 100.0 mg/kg/injection, schedule: Q01DX009 (ip), vehicle: distilled water + Tween-80
[9] = dose: 200.0 mg/kg/injection, schedule: Q01DX009 (ip), vehicle: distilled water + Tween-80
[10] = dose: 100.0 mg/kg/injection, schedule: Q01DX001 (ip), vehicle: saline with Tween-80
[11] = dose: 200.0 mg/kg/injection, schedule: Q01DX001 (ip), vehicle: saline with Tween-80
[12] = dose: 400.0 mg/kg/injection, schedule: Q01DX001 (ip), vehicle: saline with Tween-80
[13] = dose: 50.0 mg/kg/injection, schedule: Q01DX005 (ip), vehicle: saline
[14] = dose: 100.0 mg/kg/injection, schedule: Q01DX005 (ip), vehicle: saline
[15] = dose: 200.0 mg/kg/injection, schedule: Q01DX005 (ip), vehicle: saline
[16] = dose: 25.0 mg/kg/injection, schedule: Q01DX009 (ip), vehicle: Klucel (hydroxypropylcellulose) (HPC)
[17] = dose: 50.0 mg/kg/injection, schedule: Q01DX009 (ip), vehicle: Klucel (hydroxypropylcellulose) (HPC)
[18] = dose: 6.25 mg/kg/injection, schedule: Q01DX005 (ip), vehicle: saline with Tween-80
[19] = dose: 12.5 mg/kg/injection, schedule: Q01DX005 (ip), vehicle: saline with Tween-80
[20] = dose: 25.0 mg/kg/injection, schedule: Q01DX005 (ip), vehicle: saline with Tween-80
[21] = dose: 100.0 mg/kg/injection, schedule: Q04DX003 (ip), vehicle: saline with Tween-80
[22] = dose: 200.0 mg/kg/injection, schedule: Q04DX003 (ip), vehicle: saline with Tween-80
[23] = dose: 200.0 mg/kg/injection, schedule: Q01DX009 (ip), vehicle: Klucel (hydroxypropylcellulose) (HPC)
[24] = dose: 200.0 mg/kg/injection, schedule: Q01DX005 (ip), vehicle: saline with Tween-80

Structure (SMILES): Cc1ccc(S(C)(=N)=O)c(N)c1 (stereo not drawn)
- T/C (dose: 50.0 mg/kg/injection, schedule: Q01DX005 (ip), vehicle: acetone): 99 % of control
- T/C (dose: 100.0 mg/kg/injection, schedule: Q01DX005 (ip), vehicle: acetone): 99 % of control
- T/C (dose: 200.0 mg/kg/injection, schedule: Q01DX005 (ip), vehicle: acetone): 100 % of control

Structure (SMILES): Cc1ccc(C(O)(c2nc3ccccc3s2)c2nc3ccccc3s2)cc1
- T/C [1]: 101 % of control
- T/C [2]: 112 % of control
- T/C [3]: 113 % of control

Structure (SMILES): Cc1cc(C)n(-c2ccc(-c3cc(=O)c4ccccc4o3)cc2)n1
- T/C [4]: 92 % of control
- T/C [5]: 90 % of control

Structure (SMILES): CCOC(=O)c1ccc(NC(=O)Nc2nc3ccccc3s2)cc1
- T/C [6]: 97 % of control
- T/C [7]: 97 % of control
- T/C [8]: 90 % of control
- T/C [9]: 90 % of control
- T/C (dose: 400.0 mg/kg/injection, schedule: Q01DX009 (ip), vehicle: distilled water + Tween-80): 90 % of control

Structure (SMILES): [NH-]CC(=O)O.[NH-]CC(=O)O.[NH-]CC(=O)O.[NH-]CC(=O)O.[Pt+4]
- T/C (dose: 12.5 mg/kg/injection, schedule: Q01DX009 (ip), vehicle: distilled water + Tween-80): 93 % of control
- T/C [6]: 94 % of control
- T/C [7]: 101 % of control
- T/C [8]: 104 % of control
- T/C [9]: 104 % of control

Structure (SMILES): COc1ccc(/C(C)=N/N=c2/sc3ccccc3n2CC(=O)O)cc1
- T/C [10]: 101 % of control
- T/C [11]: 101 % of control
- T/C [12]: 91 % of control

Structure (SMILES): O=C1N(CCc2ccccc2)CCCS1(=O)=O
- T/C [4]: 115 % of control
- T/C [5]: 117 % of control

Structure (SMILES): O=C1c2ccccc2C(=O)c2c1oc1c2ccc2ccccc21
- T/C (dose: 12.5 mg/kg/injection, schedule: Q01DX009 (ip), vehicle: saline with Tween-80): 98 % of control
- T/C (dose: 25.0 mg/kg/injection, schedule: Q01DX009 (ip), vehicle: saline with Tween-80): 92 % of control
- T/C [1]: 99 % of control
- T/C [2]: 87 % of control

Structure (SMILES): NC(=O)C/C(N)=N/O
- T/C [13]: 98 % of control
- T/C [14]: 101 % of control
- T/C [15]: 100 % of control

Structure (SMILES): Cc1ccc(C)c(C2=C/C(=C/c3ccc(N(CCC#N)CCC#N)cc3)C(=O)O2)c1
- T/C [10]: 97 % of control
- T/C [11]: 92 % of control
- T/C [12]: 101 % of control

Structure (SMILES): COc1ccc2c(c1)CCc1c(-c3noc4c3CCc3cc(OC)ccc3-4)noc1-2
- T/C (dose: 60.0 mg/kg/injection, schedule: Q01DX005 (ip), vehicle: Klucel + Tween-80): 92 % of control
- T/C (dose: 120.0 mg/kg/injection, schedule: Q01DX005 (ip), vehicle: Klucel + Tween-80): 96 % of control
- T/C (dose: 240.0 mg/kg/injection, schedule: Q01DX005 (ip), vehicle: Klucel + Tween-80): 100 % of control

Structure (SMILES): COc1cccc2c1C(=O)c1c(O)c3c(c(O)c1C2=O)C[C@@](O)(C(C)=O)C[C@@H]3OC1CC(N=CCCCC=NC2CC(O[C@H]3C[C@](O)(C(C)=O)Cc4c(O)c5c(c(O)c43)C(=O)c3c(OC)cccc3C5=O)OC(C)C2O)C(O)C(C)O1 (stereo partly drawn)
- T/C (dose: 0.5 mg/kg/injection, schedule: Q04DX003 (ip), vehicle: distilled water + Tween-80): 104 % of control
- T/C (dose: 1.0 mg/kg/injection, schedule: Q04DX003 (ip), vehicle: distilled water + Tween-80): 110 % of control
- T/C (dose: 2.0 mg/kg/injection, schedule: Q04DX003 (ip), vehicle: distilled water + Tween-80): 123 % of control
- T/C (dose: 16.0 mg/kg/injection, schedule: Q04DX003 (ip), vehicle: distilled water + Tween-80): 122 % of control

Structure (SMILES): Oc1c(-c2ccccc2)nn(O)c1-c1ccccc1
- T/C (dose: 12.5 mg/kg/injection, schedule: Q01DX009 (ip), vehicle: Klucel (hydroxypropylcellulose) (HPC)): 106 % of control
- T/C [16]: 100 % of control
- T/C [17]: 95 % of control

Structure (SMILES): CCCCN(CCCC)CCCNc1nccc2ccccc12
- T/C [18]: 106 % of control
- T/C [19]: 103 % of control
- T/C [20]: 106 % of control

Structure (SMILES): O=C([O-])CC(=O)[O-].[Cu+2].c1ccc(-c2ccccn2)nc1
- T/C [18]: 101 % of control
- T/C [19]: 99 % of control
- T/C [20]: 108 % of control

Structure (SMILES): C=CCC(C(C)=O)C(=O)OC (stereo not drawn)
- T/C [13]: 90 % of control
- T/C [14]: 104 % of control
- T/C [15]: 100 % of control

Structure (SMILES): CC(=O)Nc1ccc(C)c2ccccc12
- T/C (dose: 75.0 mg/kg/injection, schedule: Q04DX003 (ip), vehicle: saline with Tween-80): 100 % of control
- T/C (dose: 150.0 mg/kg/injection, schedule: Q04DX003 (ip), vehicle: saline with Tween-80): 104 % of control
- T/C (dose: 300.0 mg/kg/injection, schedule: Q04DX003 (ip), vehicle: saline with Tween-80): 108 % of control

Structure (SMILES): Nc1ccccc1/C=C/c1ccnc2ccccc12
- T/C (dose: 12.5 mg/kg/injection, schedule: Q01DX001 (ip), vehicle: Klucel (hydroxypropylcellulose) (HPC)): 101 % of control and 96 % of control
- T/C (dose: 25.0 mg/kg/injection, schedule: Q01DX001 (ip), vehicle: Klucel (hydroxypropylcellulose) (HPC)): 100 % of control and 89 % of control
- T/C (dose: 50.0 mg/kg/injection, schedule: Q01DX001 (ip), vehicle: Klucel (hydroxypropylcellulose) (HPC)): 91 % of control and 97 % of control
- T/C (dose: 100.0 mg/kg/injection, schedule: Q01DX001 (ip), vehicle: Klucel (hydroxypropylcellulose) (HPC)): 87 % of control and 94 % of control

Structure (SMILES): CN/N=C/c1ccc(O)c(OC)c1
- T/C [21]: 100 % of control
- T/C [22]: 100 % of control
- T/C (dose: 400.0 mg/kg/injection, schedule: Q04DX003 (ip), vehicle: saline with Tween-80): 100 % of control

Structure (SMILES): CC1=C/C(=N\N2CCOCC2)C(C(O)(C(F)(F)F)C(F)(F)F)C(C)(C)C1 (stereo not drawn)
- T/C [17]: 96 % of control
- T/C (dose: 100.0 mg/kg/injection, schedule: Q01DX009 (ip), vehicle: Klucel (hydroxypropylcellulose) (HPC)): 102 % of control
- T/C [23]: 105 % of control

Structure (SMILES): OCC(O)C(O)CO (stereo not drawn)
- T/C [4]: 98 % of control
- T/C [5]: 104 % of control
- T/C [24]: 104 % of control

Structure (SMILES): CCNc1nc(NC(C)C)nc(SC)n1
- T/C (dose: 50.0 mg/kg/injection, schedule: Q04DX003 (ip), vehicle: saline with Tween-80): 91 % of control
- T/C [21]: 100 % of control
- T/C [22]: 87 % of control

Structure (SMILES): COc1ccc(C2CC(=O)N(c3ncccn3)C(=O)C2)cc1
- T/C (dose: 100.0 mg/kg/injection, schedule: Q04DX003 (ip), vehicle: saline): 103 % of control
- T/C (dose: 200.0 mg/kg/injection, schedule: Q04DX003 (ip), vehicle: saline): 94 % of control
- T/C (dose: 400.0 mg/kg/injection, schedule: Q04DX003 (ip), vehicle: saline): 102 % of control

Structure (SMILES): O=C1C=CC(=O)C2=C1C1C3=C(C(=O)C=CC3=O)C2c2ccccc21
- T/C [1]: 110 % of control
- T/C [2]: 106 % of control
- T/C [3]: 101 % of control

Structure (SMILES): N#CC(C#N)=C/C=C/c1cccc([N+](=O)[O-])c1
- T/C (dose: 3.12 mg/kg/injection, schedule: Q01DX009 (ip), vehicle: Klucel (hydroxypropylcellulose) (HPC)): 114 % of control
- T/C (dose: 6.25 mg/kg/injection, schedule: Q01DX009 (ip), vehicle: Klucel (hydroxypropylcellulose) (HPC)): 123 % of control
- T/C (dose: 8.2 mg/kg/injection, schedule: Q01DX009 (ip), vehicle: Klucel (hydroxypropylcellulose) (HPC)): 118 % of control
- T/C [16]: 100 % of control

Structure (SMILES): COC(=O)Nc1cn2cc(C(=O)c3cccs3)ccc2n1
- T/C [17]: 113 % of control
- T/C [23]: 151 % of control

Structure (SMILES): COC(=O)C1(OC)C(=O)NC2=C1C(=O)c1ccccc1C2=O (stereo not drawn)
- T/C [4]: 94 % of control
- T/C [5]: 105 % of control
- T/C [24]: 106 % of control

Structure (SMILES): Cc1cccc(Nc2c(C(=O)O)cnc3cc4c(cc23)OCO4)c1
- T/C (dose: 60.0 mg/kg/injection, schedule: Q01DX005 (ip), vehicle: Klucel (hydroxypropylcellulose) (HPC)): 94 % of control
- T/C (dose: 120.0 mg/kg/injection, schedule: Q01DX005 (ip), vehicle: Klucel (hydroxypropylcellulose) (HPC)): 94 % of control
